Assay results published in patent US20140303092A1 (CHIMERIX, INC., priority 2011, published 2014).
Marks after values point to notes of the source that are not given here.

Columns and labels:
P-gp = P-gp (Homo sapiens, UniProt P08183); experiment: P-gp inhibition in vitro; assay type: in vitro ADME; details: in vitro results
Source text: Due to this potential interaction, digoxin is excluded medication in Study HDP-CDV-301 (see Example 5).

CMV = experiment: Study HDP-CDV-350: virologic response of refractory CMV infection in HCT recipients; assay type: in vivo, human (allogeneic HCT recipients); details: for Proportion of subjects with ≧1 log10 last on-treatment reduction or last on-treatment reduction to ≦ LLOQ / Proportion of subjects with ≧1 log10 postbaseline reduction in CMV DNAemia or postbaseline reduction to ≦ LLOQ: LLOQ 100 copies/mL
Procedure: The virologic responses of 16 allogeneic HCT recipients enrolled and treated with HDP-CDV due to refractory CMV infection or disease and/or intolerance to available anti-CMV medications were evaluated.
All subjects completed a screening assessment (including obtaining written informed consent and, where applicable, assent) prior to initiating treatment with HDP-CDV.
HDP-CDV was given orally twice weekly (BIW); 100 mg BIW for adults or 2 mg/kg BIW for pediatrics. […] Eligible subjects received either a weight-based or fixed dose of HDP-CDV. Pediatric subjects (≦12 years old) received a 4 mg/kg total weekly dose (not-to-exceed 200 mg), as either 2 mg/kg twice-weekly (BIW) or 4 mg/kg once-weekly (QW). Adults and adolescent (13-17 years old) subjects received a 200 mg (not to exceed 4 mg/kg) total weekly dose, as either 100 mg BIW or 200 mg QW. BIW doses were administered at alternating 3- and 4-day intervals and QW doses on the same day each week.
Subjects were treated for an initial period of up to 3 months until either resolution or stabilization of their clinical disease or for 4 weeks following resolution of viral DNAemia, depending on the disease under treatment, whichever was longer. Treatment is extended for up to an additional 3 months, for a total duration of 6 months treatment, depending on the subject's clinical response.
(§1) Subjects underwent extensive safety monitoring, including routine safety laboratory assessments, physical examination, and vital sign measurements at regular intervals. In addition, subjects were monitored for viral DNA burden in plasma (DNAemia) and other affected compartments (e.g., urine, stool, CSF, etc.). Assessments were performed weekly for the first month, every 1 or 2 weeks for the next 2 months, and monthly thereafter for as long as treatment was continued. Subjects were monitored for adverse events (AEs) and for selected concomitant medication throughout the entire study, including the 1 month posttreatment follow-up period.

[1] = Study HDP-CDV-350: safety, adverse events and disposition; assay type: in vivo, human (allogeneic HCT recipients)
Procedure: as §1
Given that subjects had to have a serious or life-threatening disease and/or to have failed other available treatment options in order to qualify for this study, there was an expected high frequency of AEs in the study population overall. With the exception of diarrhea, with or without associated GI signs and symptoms, the vast majority of AEs were attributed to the underlying conditions of the subjects and not to HDP-CDV administration.

[2] = 16 subjects, 100 mg BIW adults or 2 mg/kg BIW pediatrics

Sequence of P-gp (P08183 whole entry): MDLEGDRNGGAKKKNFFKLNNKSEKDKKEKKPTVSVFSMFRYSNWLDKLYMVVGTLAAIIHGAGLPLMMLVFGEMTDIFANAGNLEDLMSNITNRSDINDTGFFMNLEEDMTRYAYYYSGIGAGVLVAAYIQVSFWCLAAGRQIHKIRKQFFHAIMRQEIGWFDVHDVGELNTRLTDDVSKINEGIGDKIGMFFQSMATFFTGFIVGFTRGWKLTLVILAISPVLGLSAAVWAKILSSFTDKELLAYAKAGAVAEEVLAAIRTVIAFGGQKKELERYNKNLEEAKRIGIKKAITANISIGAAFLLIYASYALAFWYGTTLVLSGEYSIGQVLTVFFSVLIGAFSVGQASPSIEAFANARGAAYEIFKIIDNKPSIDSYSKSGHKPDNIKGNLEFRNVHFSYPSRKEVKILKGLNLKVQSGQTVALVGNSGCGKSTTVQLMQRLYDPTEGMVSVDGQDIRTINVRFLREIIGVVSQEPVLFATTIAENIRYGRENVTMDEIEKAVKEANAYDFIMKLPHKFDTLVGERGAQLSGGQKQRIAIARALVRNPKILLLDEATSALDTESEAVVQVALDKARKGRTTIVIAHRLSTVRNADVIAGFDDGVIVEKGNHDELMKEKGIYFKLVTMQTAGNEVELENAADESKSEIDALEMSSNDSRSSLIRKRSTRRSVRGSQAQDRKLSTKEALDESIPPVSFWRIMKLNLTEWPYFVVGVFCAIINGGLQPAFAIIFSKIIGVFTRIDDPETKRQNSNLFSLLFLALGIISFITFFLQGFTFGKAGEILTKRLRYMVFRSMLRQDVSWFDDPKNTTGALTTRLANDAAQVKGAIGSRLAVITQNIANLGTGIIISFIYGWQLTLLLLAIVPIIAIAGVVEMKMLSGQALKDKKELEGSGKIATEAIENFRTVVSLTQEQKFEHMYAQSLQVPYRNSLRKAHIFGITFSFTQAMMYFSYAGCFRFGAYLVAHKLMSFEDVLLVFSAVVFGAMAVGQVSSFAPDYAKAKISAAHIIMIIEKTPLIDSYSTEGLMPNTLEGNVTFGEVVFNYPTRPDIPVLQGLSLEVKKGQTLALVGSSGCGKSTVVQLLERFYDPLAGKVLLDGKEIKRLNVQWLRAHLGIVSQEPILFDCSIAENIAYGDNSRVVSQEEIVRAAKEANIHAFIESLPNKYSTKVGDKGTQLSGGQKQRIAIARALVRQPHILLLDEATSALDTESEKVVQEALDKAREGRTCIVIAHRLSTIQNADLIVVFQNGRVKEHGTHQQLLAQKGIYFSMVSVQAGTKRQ

SMILES: CCCCCCCCCCCCCCCCOCCCOP(=O)(O)COC(CO)Cn1ccc(N)nc1=O (stereo not drawn) [HDP-CDV]
- inhibition of P-gp (P-gp): may inhibit P-gp
- Maximal reduction in CMV VL from BL, mean (range) (CMV; 16 HCT recipients, 100 mg BIW adults or 2 mg/kg BIW pediatrics): 1.13 (−0.30-2.60) log10
- Mean last on-treatment change from baseline CMV DNAemia (CMV; 16 subjects, qPCR plasma): −0.63 log10 copies/mL
- Mean maximal postbaseline change in CMV DNAemia (CMV; 16 subjects, qPCR plasma): −1.13 log10 copies/mL
- Change from Baseline CMV DNAemia, Mean (CMV; +1 Month Posttreatment, N 8): −1.00 log10 copies/mL
- Change from Baseline CMV DNAemia, Mean (CMV; +1 Week Posttreatment, N 9): −0.63 log10 copies/mL
- Proportion of subjects with ≧1 log10 last on-treatment reduction or last on-treatment reduction to ≦ LLOQ (CMV): (62.5%)
- Proportion of subjects with ≧1 log10 postbaseline reduction in CMV DNAemia or postbaseline reduction to ≦ LLOQ (CMV): (81.3%)
- Change from Baseline CMV DNAemia, Mean (CMV; Month 3, N 7): +0.16 log10 copies/mL
- Change from Baseline CMV DNAemia, Mean (CMV; Month 4, N 4): −0.89 log10 copies/mL
- Change from Baseline CMV DNAemia, Mean (CMV; Month 5, N 3): −0.84 log10 copies/mL
- Change from Baseline CMV DNAemia, Mean (CMV; Month 6, N 3): −0.80 log10 copies/mL
- subjects with >1 log10 reduction or ≦LOQ (2 log10) during tx (CMV; Thirteen of 16 subjects): 81%
- Change from Baseline CMV DNAemia, Mean (CMV; Week 2, N 16): −0.22 log10 copies/mL
- Change from Baseline CMV DNAemia, Mean (CMV; Week 3, N 15): −0.30 log10 copies/mL
- Change from Baseline CMV DNAemia, Mean (CMV; Week 4, N 15): −0.52 log10 copies/mL
- Change from Baseline CMV DNAemia, Mean (CMV; Week 5, N 14): −0.63 log10 copies/mL
- Change from Baseline CMV DNAemia, Mean (CMV; Week 6, N 6): −0.66 log10 copies/mL
- Change from Baseline CMV DNAemia, Mean (CMV; Week 7, N 10): −0.16 log10 copies/mL
- Change from Baseline CMV DNAemia, Mean (CMV; Week 8, N 3): +0.22 log10 copies/mL
- Change from Baseline CMV DNAemia, Mean (CMV; Week 9, N 8): −0.02 log10 copies/mL
- Change from Baseline CMV DNAemia, Mean (CMV; Week 10, N 2): +0.11 log10 copies/mL
- Change from Baseline CMV DNAemia, Mean (CMV; Week 11, N 9): +0.06 log10 copies/mL
- Proportion of subjects with ≧1 log10 last on-treatment reduction or last on-treatment reduction to ≦ LLOQ (CMV; subjects/N): 10/16
- Proportion of subjects with ≧1 log10 postbaseline reduction in CMV DNAemia or postbaseline reduction to ≦ LLOQ (CMV; subjects/N): 13/16
- Reason for Premature Study Discontinuation: Death [1, 2]: 7 (44%)
- Reasons for Premature HDP-CDV Treatment Discontinuation: Death [1, 2]: 4 (25%)
- Reasons for Premature HDP-CDV Treatment Discontinuation: Other ([1]; 16 subjects, both completed the maximum 6 months treatment without resolution of CMV infection): 2 (13%)^i
- Treatment-related Adverse Events: Colitis ([1]; human, in vivo): 1 (6%) No. of Subjects (%)
- Treatment-related Adverse Events: Decreased appetite ([1]; human, in vivo): 1 (6%) No. of Subjects (%)
- Treatment-related Adverse Events: Diarrhea ([1]; human, in vivo): 12 (75%) No. of Subjects (%)
- Treatment-related Adverse Events: Flatulence ([1]; human, in vivo): 1 (6%) No. of Subjects (%)
- Treatment-related Adverse Events: Liver function tests abnormal ([1]; human, in vivo): 3 (19%) No. of Subjects (%)
- Treatment-related Adverse Events: Nausea ([1]; human, in vivo): 2 (13%) No. of Subjects (%)
- Treatment-related Adverse Events: Neutropenia ([1]; human, in vivo): 1 (6%) No. of Subjects (%)
- tolerability ([1]; in vivo): generally well-tolerated
